Reference: PubChem BioAssay (NCI)
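Assay format: 96-well plates, 48-hour exposure. At the GI50, growth is halved. TGI: total growth inhibition.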

What was measured:
Experiment in all cases: DTP human tumour cell line panel, 48 h
EKVX NSCLC = system: EKVX NSCLC
HS 578T breast = system: HS 578T breast
T-47D breast = system: T-47D breast
NCI-H460 lung = system: NCI-H460 lung
MALME-3M melanoma = system: MALME-3M melanoma
SK-MEL-5 melanoma = system: SK-MEL-5 melanoma
786-0 renal = system: 786-0 renal
SK-OV-3 ovarian = system: SK-OV-3 ovarian
SNB-75 CNS = system: SNB-75 CNS
HT29 colon = system: HT29 colon

Row | SMILES | GI50 (EKVX NSCLC) | TGI (EKVX NSCLC) | GI50 (HS 578T breast) | TGI (HS 578T breast) | GI50 (T-47D breast) | TGI (T-47D breast) | GI50 (NCI-H460 lung) | TGI (NCI-H460 lung) | GI50 (MALME-3M melanoma) | TGI (MALME-3M melanoma) | GI50 (SK-MEL-5 melanoma) | TGI (SK-MEL-5 melanoma) | GI50 (786-0 renal) | TGI (786-0 renal) | GI50 (SK-OV-3 ovarian) | TGI (SK-OV-3 ovarian) | GI50 (SNB-75 CNS) | TGI (SNB-75 CNS) | GI50 (HT29 colon) | TGI (HT29 colon)
1 | Cc1n(Cc2ccc3ccccc3c2)cc[n+]1Cc1ccc2ccccc2c1 | 2.32 µM | 17.1 µM | 1.6 µM | 11.3 µM | 0.438 µM | 5.12 µM | 1.59 µM | 10.7 µM | 0.627 µM | 2.56 µM | 0.628 µM | 1.87 µM | 2.25 µM | 8.52 µM | 1.81 µM | 7.38 µM | 0.626 µM | 6.14 µM | 0.521 µM | 3.02 µM
2 | O=C(O)c1ccccc1-c1ccccc1C(=O)Nc1ccc2c(c1)Cc1cc(F)ccc1-2 | – | 77.3 µM | – | > 100 µM | – | > 100 µM | – | 68.2 µM | – | 88.7 µM | – | 47.2 µM | – | > 100 µM | – | > 100 µM | – | > 100 µM | – | > 100 µM
3 | COc1cc(/C=C2\C(=O)Nc3ccc(F)cc32)cc(OC)c1OC | 33.1 µM | > 100 µM | 30.4 µM | > 100 µM | 7.2 µM | > 100 µM | 19.6 µM | > 100 µM | 29.6 µM | > 100 µM | 17.3 µM | > 100 µM | 31.2 µM | > 100 µM | > 100 µM | > 100 µM | 9.18 µM | 79.3 µM | 24.8 µM | > 100 µM
4 | CCN(CC)CC(C)(C)C(=O)/C=C/c1ccc(Cl)c(Cl)c1 | 1.69 µM | 3.1 µM | 2.45 µM | 5.94 µM | 1.52 µM | 4.03 µM | 2.07 µM | 4.36 µM | 1.8 µM | 3.61 µM | 1.84 µM | 3.29 µM | 1.62 µM | 3.04 µM | – | – | 1.3 µM | 2.93 µM | – | –
5 | Cc1c(C2Nc3ccccc3C2C)[nH]c2ccccc12 (centres undefined) | – | – | 16.1 µM | 49.7 µM | 6.16 µM | 24 µM | 0.43 µM | 18.3 µM | 10.6 µM | 24.8 µM | 0.894 µM | 17.4 µM | 12 µM | 31.5 µM | 13.1 µM | 29.9 µM | 5.06 µM | 29.8 µM | 4.48 µM | 23.1 µM
6 | COc1ccc(-n2cc(-c3ccc(Cl)c(Cl)c3)nc2SCc2cccc(C#N)c2)cc1 | 41.9 µM | > 100 µM | 18.4 µM | > 100 µM | 5.33 µM | 74 µM | 51.5 µM | > 100 µM | 16.4 µM | > 100 µM | 20.2 µM | > 100 µM | 11.8 µM | 40.2 µM | 26.2 µM | > 100 µM | 17 µM | 53.4 µM | 4.7 µM | > 100 µM
7 | Cc1ccc(Nc2nc(N)c(C(=O)c3ccc(C#N)cc3)s2)cc1 | 0.573 µM | > 100 µM | 0.546 µM | > 100 µM | 0.384 µM | > 100 µM | 0.389 µM | > 100 µM | 5.25 µM | > 100 µM | 0.32 µM | 10.7 µM | 0.529 µM | > 49.8 µM | 0.449 µM | 46 µM | 0.241 µM | 8.11 µM | 0.25 µM | > 90.2 µM
